Measured values as given in PMC5441849, “Carvacrol derivatives as mushroom tyrosinase inhibitors; synthesis, kinetics mechanism and molecular docking studies” (PLoS ONE, 2017).
Entries after “also recorded” stand apart in the source; their conditions may differ. Where two headings read alike, the source gives them in different places.

Tests used:
mushroom tyrosinase [1] = target: T1, mushroom tyrosinase (Agaricus bisporus, UniProt C7FF04); test: Kinetic analysis of tyrosinase inhibition (Lineweaver-Burk and Dixon plots, diphenolase activity); format: biochemical, Agaricusbisporus; conditions: for Type of inhibition: Lineweaver-Burk plots, oxidation of L-DOPA
T1 construct: purchased Sigma
T1 sequence (C7FF04 2-392): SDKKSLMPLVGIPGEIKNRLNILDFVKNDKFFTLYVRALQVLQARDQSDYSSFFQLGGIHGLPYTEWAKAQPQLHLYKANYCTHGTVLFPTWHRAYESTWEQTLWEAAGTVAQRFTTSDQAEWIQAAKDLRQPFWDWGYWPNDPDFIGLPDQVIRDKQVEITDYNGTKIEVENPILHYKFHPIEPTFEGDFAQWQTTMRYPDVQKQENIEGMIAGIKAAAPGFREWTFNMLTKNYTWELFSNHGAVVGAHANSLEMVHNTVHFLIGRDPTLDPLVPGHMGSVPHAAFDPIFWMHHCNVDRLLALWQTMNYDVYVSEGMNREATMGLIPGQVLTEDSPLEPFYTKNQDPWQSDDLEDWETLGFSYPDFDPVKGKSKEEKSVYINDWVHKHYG
Experimental: Pre-incubation and measurement time was the same as discussed in mushroom tyrosinase inhibition assay protocol. Formation of DOPAchrome was continuously monitored at 475nm for 5min at a 30s interval in the microplate reader after addition of enzyme.

mushroom tyrosinase [2] = target: T1, mushroom tyrosinase; test: Reversibility of inhibition (remaining enzyme activity versus enzyme concentration); format: biochemical, Agaricusbisporus; conditions: enzyme 2 to 10 μg/mL, L-DOPA, 37°C
Experimental: Assay conditions were same as described in assay protocolexceptthat the final concentration of enzyme was varied (2 to 10 μg/mL).

[3] = Dixon plot, L-DOPA substrate, read-out: Inhibition constant Ki

Row | SMILES | Ki (mushroom tyrosinase [1]; [3]) [µM] | Type of inhibition (mushroom tyrosinase [1]) | Reversibility of enzyme inhibition (mushroom tyrosinase [2]) | Ki (mushroom tyrosinase [1]) [µM]
1 | Cc1ccc(C(C)C)cc1OC(=O)COC(=O)c1ccc(O)cc1O [4c, 2-[2-methyl-5-(propan-2-yl)phenoxy]-2-oxoethyl 2,4-dihydroxybenzoate] | 19 | mixed-type inhibition | reversible inhibitor; also recorded: reversibly | –
2 | Cc1ccc(C(C)C)cc1OC(=O)COC(=O)/C=C/c1ccc(O)cc1 [6b, 2-[2-methyl-5-(propan-2-yl)phenoxy]-2-oxoethyl (2E)-3-(4-hydroxyphenyl)prop-2-enoate] | 10 | mixed-type inhibition | irreversible | –
3 | Cc1ccc(C(C)C)cc1OC(=O)COC(=O)/C=C/c1ccc(O)cc1O [6c, 2-[2-methyl-5-(propan-2-yl)phenoxy]-2-oxoethyl (2E)-3-(2,4-dihydroxyphenyl)prop-2-enoate] | – | non-competitive inhibitor | irreversible; also recorded: irreversibly | 0.05
